These results are taken from patent publication US20250101011A1, “PEPTIDYL NITRILE COMPOUND AND USE THEREOF” (SHANGHAI YIDIAN PHARMACEUTICAL TECHNOLOGY DEVELOPMENT CO., …, priority 2022, published 2025).

The structures appear in SMILES notation.

This test addresses DPP1 (Homo sapiens (Human), UniProt P53634). Kind of test: DPP1 activity inhibition test on U937 cells. The test is classed as cell-based. The settings on record: substrate h-Gly-phe-AFC; for inhibition at 0.005 µM: U-937, 5 nM compound; for inhibition at 0.05 µM: U-937, 50 nM compound; for IC50: intracellular enzyme activity. How it is done: After incubation at 37° C. for 1 h, add h-Gly-phe-AFC (10 μL) to each well and start reaction.

DPP1, sequence (P53634 25-463): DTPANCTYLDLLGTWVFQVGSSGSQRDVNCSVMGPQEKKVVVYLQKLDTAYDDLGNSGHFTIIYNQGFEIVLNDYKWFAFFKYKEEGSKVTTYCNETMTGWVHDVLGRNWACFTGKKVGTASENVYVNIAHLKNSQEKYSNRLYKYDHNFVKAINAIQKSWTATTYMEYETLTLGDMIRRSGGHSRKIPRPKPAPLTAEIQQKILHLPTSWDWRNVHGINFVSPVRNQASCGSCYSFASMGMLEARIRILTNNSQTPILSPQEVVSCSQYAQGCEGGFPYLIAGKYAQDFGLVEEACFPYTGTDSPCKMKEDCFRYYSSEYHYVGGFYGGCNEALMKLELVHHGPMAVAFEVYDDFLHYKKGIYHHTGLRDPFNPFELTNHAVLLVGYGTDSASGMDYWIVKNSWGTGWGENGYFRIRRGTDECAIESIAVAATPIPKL

As to `Cn1c(=O)oc2ncc(-c3ccc(C[C@@H](C#N)NC(=O)[C@@H]4CNCCCO4)c(F)c3)nc21` [Compound D66], the inhibition at 0.005 µM is below 30% and the inhibition at 0.05 µM is below 30%.
Molecule `N#C[C@H](Cc1ccc(-c2ccc3oc(=O)n(C4CC(=O)C4)c3c2)cc1F)NC(=O)[C@@H]1CNCCCO1` [Compound D68] came in with an inhibition at 0.005 µM below 30% and an inhibition at 0.05 µM below 30%.
Regarding `N#C[C@H](Cc1ccc(-c2ccc3oc(=O)n(C4CC(O)C4)c3c2)cc1F)NC(=O)[C@@H]1CNCCCO1` (some centres unmarked) [Compound D69], the inhibition at 0.005 µM is below 30% and the inhibition at 0.05 µM is below 30%.
`N#C[C@H](Cc1ccc(-c2ccc3oc(=O)n(C4CS(=O)(=O)C4)c3c2)cc1F)NC(=O)[C@@H]1CNCCCO1` [Compound D71] gave an inhibition at 0.005 µM below 30% and an inhibition at 0.05 µM below 30%.
`N#C[C@H](Cc1ccc(-c2ccc3c(c2)C2(CS(=O)(=O)C2)OC3=O)cc1F)NC(=O)[C@@H]1CNCCCO1` [Compound D72] displayed an inhibition at 0.005 µM below 30% and an inhibition at 0.05 µM below 30%.
Consider `CN(C)CC1OC(=O)c2ccc(-c3ccc(C[C@@H](C#N)NC(=O)[C@@H]4CNCCCO4)c(F)c3)cc21` (some centres unmarked) [Compound D76], for which the inhibition at 0.005 µM is below 30% and the inhibition at 0.05 µM lay in the range of 75 to 100%.
The corresponding values for `COCC1OC(=O)c2ccc(-c3ccc(C[C@@H](C#N)NC(=O)[C@@H]4CNCCCO4)c(F)c3)cc21` (some centres unmarked) [Compound D77] are below 30% and 75 to 100%.
The corresponding values for `N#C[C@H](Cc1ccc(-c2cc3c(cc2F)C(=O)OC3)cc1F)NC(=O)[C@@H]1CNCCCO1` [Compound D79] are below 30% and below 30%.
The corresponding values for `CS(=O)(=O)Cn1c(=O)oc2ccc(-c3ccc(C[C@@H](C#N)NC(=O)[C@@H]4CNCCCO4)c(F)c3)cc21` [Compound D80] are below 30% and below 30%.
The molecule `N#C[C@H](Cc1ccc(-c2ccc3c(c2)N2CC(=O)N=C2O3)cc1F)NC(=O)[C@@H]1CNCCCO1` [Compound D81] registered an inhibition at 0.005 µM below 30% and an inhibition at 0.05 µM of 30 to 75%.
Taken in the same sequence, the figures for `N#C[C@H](Cc1ccc(-c2ccc3oc(=O)n(C4CCN(C5COC5)CC4)c3c2)cc1F)NC(=O)[C@@H]1CNCCCO1` [Compound D82] were below 30% and below 30%.
Taken in the same sequence, the figures for `CN1CCC(n2c(=O)oc3ccc(-c4ccc(C[C@@H](C#N)NC(=O)[C@@H]5CNCCCO5)c(F)c4)cc32)CC1` [Compound D83] were below 30% and below 30%.
In turn, `CN1CCC2(C1)OCc1ccc(-c3ccc(C[C@@H](C#N)NC(=O)[C@@H]4CNCCCO4)c(F)c3)cc12` (some centres unmarked) [Compound D86] gave an inhibition at 0.005 µM below 30% and an inhibition at 0.05 µM of 75 to 100%.
In turn, `N#C[C@H](Cc1ccc(-c2ccc3c(c2)C2(CCN(C4COC4)C2)OC3)cc1F)NC(=O)[C@@H]1CNCCCO1` (some centres unmarked) [Compound D87] showed an inhibition at 0.005 µM below 30%, an inhibition at 0.05 µM of 75 to 100% and an IC50 of 12.8 nM.
Consider `CN1CCC2(C1)OC(=O)c1ccc(-c3ccc(C[C@@H](C#N)NC(=O)[C@@H]4CNCCCO4)c(F)c3)cc12` (some centres unmarked) [Compound D88], for which the inhibition at 0.005 µM is below 30% and the inhibition at 0.05 µM is 75 to 100%.
Taken in the same sequence, the figures for `N#C[C@H](Cc1ccc(-c2ccc3c(c2)C2(CCN(C4COC4)C2)OC3=O)cc1F)NC(=O)[C@@H]1CNCCCO1` (some centres unmarked) [Compound D89] were below 30% and below 30%.
Taken in the same sequence, the figures for `CN1CCC2(C=Cc3ccc(-c4ccc(C[C@@H](C#N)NC(=O)[C@@H]5CNCCCO5)c(F)c4)cc32)CC1` [Compound D90] were below 30% and 75 to 100%.
Turning to `CN1CCC2(C=Cc3cc(-c4ccc(C[C@@H](C#N)NC(=O)[C@@H]5CNCCCO5)c(F)c4)ccc32)CC1` [Compound D91], the inhibition at 0.005 µM was 30 to 75%, the inhibition at 0.05 µM was in the range of 75 to 100% and the IC50 worked out at 18 nM.
